Assay results: patent publication US20050186230A1, “Elemene compositions containing liquid oil” (SD Pharmaceuticals, Inc., priority 2004, published 2005)
Where two headings read alike, the source gives them in different places.

Experiments:
[1] = test system: K562 leukemia cells; conditions: cited from earlier work
[2] = test system: rat ascitic reticulum cell sarcoma; conditions: material contained beta-elemene 65%; cited from earlier work
[3] = test system: murine Ehrlich ascites carcinoma; conditions: cited from earlier work
[4] = Solubility of elemenes in water; type: physicochemical; conditions: found by the inventor
[5] = test system: brain tumors (neuroglioma), liver and esophageal cancers; conditions: 2 year clinical trial in China; cited from earlier work
[6] = test system: cerebral carcinoma; conditions: combination of the elemene and local chemotherapy; cited from earlier work
[7] = test system: human leukemia K562 cells; conditions: cited from earlier work
[8] = test system: promyelocytic leukemia HL 60 cells; conditions: cited from earlier work
[9] = test system: peripheral blood leukocytes (PBL); conditions: cited from earlier work
[10] = test system: erythroleukemia K562 cells; conditions: cited from earlier work
[11] = background statement; cited from earlier work

Row | Compound | apoptosis of K562 leukemia cells [1] | anti-tumor activity [2] | anti-tumor activity ([3]; murine Ehrlich ascites carcinoma, material contained beta-elemene 65%) | side effects during treatment ([3]; murine and rat tumor models) | solubility in water [4] | clinical effect [5] | patients reaching complete remission level [6] | apoptosis of K562 cells [7] | bcl-2 protein expression in K562 cells [7] | in vitro IC50 [8] | in vitro IC50 [9] | in vitro IC50 [10] | solubility in water [11]
1 | C=CC1(C)CCC(C(=C)C)CC1C(=C)C (stereo not drawn) [beta-elemene, 1-methyl-1-vinyl-2,4-diisoprotenyl-cyclohexane] | induces apoptosis | marked anti-tumor activity | marked anti-tumor activity | Diarrhea and weight loss | – | – | – | – | – | – | – | – | –
2 | elemene | – | – | – | – | some solubility in water | beneficial effects on brain tumors (neuroglioma), liver and esophageal cancers | 27% | induces apoptosis | down-regulation of bcl-2 protein | 27.5 µg/mL | 254.3 µg/mL | 81 µg/mL | insoluble in water
